Assay results from patent US11752138B2 (VANDERBILT UNIVERSITY, priority 2020, dated 2023).
pIC50: −log10 of the molar value.

Biological target: Human LDHA (Homo sapiens (Human), UniProt P00338)
Test: human LDHA primary biochemical assay (Example 1)
Conditions: biochemical LDHA inhibitory activity, assay of Example 1
Text: This example describes a human LDHA primary biochemical assay employed in the characterization of a compound of Formula I in an embodiment of the dislcosure.
Test compounds were placed in a Greiner Bio-One (Monroe, N.C.) 1536-well black solid bottom assay plate. 200 millimolar (mM) Tris HCl, pH 7.4, 100 micromolar (μM) EDTA and 0.01% TWEEN-20™, final concentration, was used as the assay buffer. The LDHA reagent was 2 nanomolar (nM) Human LDHA (Meridian Life Science, Inc., Memphis, Tenn.), final concentration, in assay buffer. The substrate reagent was 0.06 mM NADH and 0.2 mM sodium pyruvate, final concentration, in assay buffer. The resazurin/diaphorase coupling reagent was 0.037 mM resazurin and 0.133 milligrams per milliliter (mg/mL) diaphorase, final concentration, in assay buffer. The inhibition of LDHA activity was measured by fluorescence emission. […]

Structure (SMILES) | pIC50
NS(=O)(=O)c1ccc(Cc2c(-c3ccc(F)c(-c4ccc(Cl)c(F)c4)c3)nn(-c3nc(C(=O)O)cs3)c2CC2CC2)cc1F [Compound 144, 2-(3-(4′-chloro-3′,6-difluoro-[1,1′-biphenyl]-3-yl)-5-(cyclopropylmethyl)-4-(3-fluoro-4-sulfamoylbenzyl)-1H-pyrazol-1-yl)thiazole-4-carboxylic acid] | > 7.00
NS(=O)(=O)c1ccc(Cc2c(-c3cccc(-c4ccc(C(F)(F)F)cc4)c3)nn(-c3nc(C(=O)O)cs3)c2CC2CC2)cc1F [Compound 219, 2-(5-(cyclopropylmethyl)-4-(3-fluoro-4-sulfamoylbenzyl)-3-(4′-(trifluoromethyl)-[1,1′-biphenyl]-3-yl)-1H-pyrazol-1-yl)thiazole-4-carboxylic acid] | > 7.00
Cc1cc(-c2cc(-c3nn(-c4nc(C(=O)O)cs4)c(CC4CC4)c3Cc3ccc(S(N)(=O)=O)c(F)c3)ccc2F)ccc1F [Compound 195, 2-(5-(cyclopropylmethyl)-3-(4′,6-difluoro-3′-methyl-[1,1′-biphenyl]-3-yl)-4-(3-fluoro-4-sulfamoylbenzyl)-1H-pyrazol-1-yl)thiazole-4-carboxylic acid] | > 7.00
NS(=O)(=O)c1ccc(Cc2c(-c3ccc(F)c(-c4cccc(Cl)c4)c3)nn(-c3nc(C(=O)O)cs3)c2CC2CC2)cc1F [Compound 149, 2-(3-(3′-chloro-6-fluoro-[1,1′-biphenyl]-3-yl)-5-(cyclopropylmethyl)-4-(3-fluoro-4-sulfamoylbenzyl)-1H-pyrazol-1-yl)thiazole-4-carboxylic acid] | > 7.00
NS(=O)(=O)c1ccc(Cc2c(-c3ccc(F)c(-c4ccc(C(F)(F)F)cc4)c3)nn(-c3nc(C(=O)O)cs3)c2CC2CC2)cc1F [Compound 138, 2-(5-(cyclopropylmethyl)-3-(6-fluoro-4′-(trifluoromethyl)-[1,1′-biphenyl]-3-yl)-4-(3-fluoro-4-sulfamoylbenzyl)-1H-pyrazol-1-yl)thiazole-4-carboxylic acid] | > 7.00
NS(=O)(=O)c1ccc(Cc2c(-c3cccc(-c4ccc(C5CC5)cc4)c3)nn(-c3nc(C(=O)O)cs3)c2CC2CC2)cc1F [Compound 222, 2-(3-(4′-cyclopropyl-[1,1′-biphenyl]-3-yl)-5-(cyclopropylmethyl)-4-(3-fluoro-4-sulfamoylbenzyl)-1H-pyrazol-1-yl)thiazole-4-carboxylic acid] | 6.00 to 7.00
CC(C)c1ccc(-c2cc(-c3nn(-c4nc(C(=O)O)cs4)c(CC4CC4)c3Cc3ccc(S(N)(=O)=O)c(F)c3)ccc2F)cc1 [Compound 142, 2-(5-(cyclopropylmethyl)-3-(6-fluoro-4′-isopropyl-[1,1′-biphenyl]-3-yl)-4-(3-fluoro-4-sulfamoylbenzyl)-1H-pyrazol-1-yl)thiazole-4-carboxylic acid] | 6.00 to 7.00
Cc1cnc(C#Cc2cccc(-c3nn(-c4nc(C(=O)O)cs4)c(CCC4CC4)c3Cc3ccc(S(N)(=O)=O)c(F)c3)c2)s1 [Compound 234, 2-(5-(2-cyclopropylethyl)-4-(3-fluoro-4-sulfamoylbenzyl)-3-(3-((5-methylthiazol-2-yl)ethynyl)phenyl)-1H-pyrazol-1-yl)thiazole-4-carboxylic acid] | > 7.00
N#Cc1cccc(-c2cc(-c3nn(-c4nc(C(=O)O)cs4)c(CC4CC4)c3Cc3ccc(S(N)(=O)=O)c(F)c3)ccc2F)c1 [Compound 200, 2-(3-(3′-cyano-6-fluoro-[1,1′-biphenyl]-3-yl)-5-(cyclopropylmethyl)-4-(3-fluoro-4-sulfamoylbenzyl)-1H-pyrazol-1-yl)thiazole-4-carboxylic acid] | > 7.00
Cc1cc(-c2cc(-c3nn(-c4nc(C(=O)O)cs4)c(CC4CC4)c3Cc3ccc(S(N)(=O)=O)c(F)c3)ccc2F)ccc1C(C)C [Compound 213, 2-[5-(cyclopropylmethyl)-3-[4-fluoro-3-(4-isopropyl-3-methylphenyl)phenyl]-4-[(3-fluoro-4-sulfamoylphenyl)methyl]pyrazol-1-yl]-1,3-thiazole-4-carboxylic acid] | > 7.00
NS(=O)(=O)c1ccc(Cc2c(-c3ccc(F)c(C4=CCC(F)(F)CC4)c3)nn(-c3nc(C(=O)O)cs3)c2CC2CC2)cc1F [Compound 107, 2-(5-(cyclopropylmethyl)-4-(3-fluoro-4-sulfamoylbenzyl)-3-(4′,4′,6-trifluoro-2′,3′,4′,5′-tetrahydro-[1,1′-biphenyl]-3-yl)-1H-pyrazol-1-yl)thiazole-4-carboxylic acid] | > 7.00
CC(C)(C)NC(=O)c1cccc(-c2nn(-c3nc(C(=O)O)cs3)c(CC3CC3)c2Cc2ccc([S+](N)(=O)[O-])cc2)c1 [Compound 188, 2-(3-(3-(tert-butylcarbamoyl)phenyl)-5-(cyclopropylmethyl)-4-(4-sulfamoylbenzyl)-1H-pyrazol-1-yl)thiazole-4-carboxylic acid] | > 7.00
NS(=O)(=O)c1ccc(Cc2c(-c3ccc(F)c(-c4ccc5c(c4)CCC5)c3)nn(-c3nc(C(=O)O)cs3)c2CC2CC2)cc1F [Compound 155, 2-(5-(cyclopropylmethyl)-3-(3-(2,3-dihydro-1H-inden-5-yl)-4-fluorophenyl)-4-(3-fluoro-4-sulfamoylbenzyl)-1H-pyrazol-1-yl)thiazole-4-carboxylic acid] | > 7.00
NS(=O)(=O)c1ccc(Cc2c(-c3ccc(F)c(C4=CCCCC4)c3)nn(-c3nc(C(=O)O)cs3)c2CC2CC2)cc1F [Compound 146, 2-(5-(cyclopropylmethyl)-3-(6-fluoro-2′,3′,4′,5′-tetrahydro-[1,1′-biphenyl]-3-yl)-4-(3-fluoro-4-sulfamoylbenzyl)-1H-pyrazol-1-yl)thiazole-4-carboxylic acid] | > 7.00
NS(=O)(=O)c1ccc(Cc2c(-c3ccc(F)c(-c4ccc(Cl)cc4)c3)nn(-c3nc(C(=O)O)cs3)c2CC2CC2)cc1F [Compound 139, 2-(3-(4′-chloro-6-fluoro-[1,1′-biphenyl]-3-yl)-5-(cyclopropylmethyl)-4-(3-fluoro-4-sulfamoylbenzyl)-1H-pyrazol-1-yl)thiazole-4-carboxylic acid] | > 7.00
N#Cc1ccc(-c2cc(-c3nn(-c4nc(C(=O)O)cs4)c(CC4CC4)c3Cc3ccc(S(N)(=O)=O)c(F)c3)ccc2F)cc1 [Compound 201, 2-(3-(4′-cyano-6-fluoro-[1,1′-biphenyl]-3-yl)-5-(cyclopropylmethyl)-4-(3-fluoro-4-sulfamoylbenzyl)-1H-pyrazol-1-yl)thiazole-4-carboxylic acid] | > 7.00
NS(=O)(=O)c1ccc(Cc2c(-c3cccc(-c4ccc(C5CC5)cc4)c3)nn(-c3nc(C(=O)O)cs3)c2CC2CC2)cc1F [Compound 183, 2-(3-(4′-cyclopropyl-[1,1′-biphenyl]-3-yl)-5-(cyclopropylmethyl)-4-(3-fluoro-4-sulfamoylbenzyl)-1H-pyrazol-1-yl)thiazole-4-carboxylic acid] | > 7.00
COc1ccc(-c2cc(-c3nn(-c4nc(C(=O)O)cs4)c(CC4CC4)c3Cc3ccc(S(N)(=O)=O)c(F)c3)ccc2F)cc1Cl [Compound 191, 2-(3-(3′-chloro-6-fluoro-4′-methoxy-[1,1′-biphenyl]-3-yl)-5-(cyclopropylmethyl)-4-(3-fluoro-4-sulfamoylbenzyl)-1H-pyrazol-1-yl)thiazole-4-carboxylic acid] | > 7.00
Cc1nc(C#Cc2cccc(-c3nn(-c4nc(C(=O)O)cs4)c(CCC4CC4)c3Cc3ccc(S(N)(=O)=O)c(F)c3)c2)cs1 [Compound 243, 2-(5-(2-cyclopropylethyl)-4-(3-fluoro-4-sulfamoylbenzyl)-3-(3-((2-methylthiazol-4-yl)ethynyl)phenyl)-1H-pyrazol-1-yl)thiazole-4-carboxylic acid] | > 7.00
NS(=O)(=O)c1ccc(Cc2c(-c3ccc(F)c(C4=CCCO4)c3)nn(-c3nc(C(=O)O)cs3)c2CC2CC2)cc1F [Compound 197, 2-(5-(cyclopropylmethyl)-3-(3-(4,5-dihydrofuran-2-yl)-4-fluorophenyl)-4-(3-fluoro-4-sulfamoylbenzyl)-1H-pyrazol-1-yl)thiazole-4-carboxylic acid] | > 7.00
CC(C)c1ccc(-c2cncc(-c3nn(-c4nc(C(=O)O)cs4)c(CC4CC4)c3Cc3ccc(S(N)(=O)=O)c(F)c3)c2)cc1 [Compound 210, 2-[5-(cyclopropylmethyl)-4-[(3-fluoro-4-sulfamoylphenyl)methyl]-3-[5-(4-isopropylphenyl)pyridin-3-yl]pyrazol-1-yl]-1,3-thiazole-4-carboxylic acid] | > 7.00
NS(=O)(=O)c1ccc(Cc2c(-c3cccc(-c4ccc(O)c(F)c4)c3)nn(-c3nc(C(=O)O)cs3)c2CC2CC2)cc1F [Compound 229, 2-(5-(cyclopropylmethyl)-3-(3′-fluoro-4′-hydroxy-[1,1′-biphenyl]-3-yl)-4-(3-fluoro-4-sulfamoylbenzyl)-1H-pyrazol-1-yl)thiazole-4-carboxylic acid] | > 7.00
Cc1ccc(C#Cc2cccc(-c3nn(-c4nc(C(=O)O)cs4)c(C4CC4C4CC4)c3Cc3ccc(S(N)(=O)=O)c(F)c3)c2)s1 (stereo not shown) [Compound 134, 2-(5-([1,1′-bi(cyclopropan)]-2-yl)-4-(3-fluoro-4-sulfamoylbenzyl)-3-(3-((5-methylthiophen-2-yl)ethynyl)phenyl)-1H-pyrazol-1-yl)thiazole-4-carboxylic acid] | 6.00 to 7.00
N[S+](=O)([O-])c1ccc(Cc2c(-c3ccc(F)c(C(=O)N4CCCC4)c3)nn(-c3nc(C(=O)O)cs3)c2CC2CC2)cc1F [Compound 154] | > 7.00
CN(C)c1cccc(-c2cc(-c3nn(-c4nc(C(=O)O)cs4)c(CC4CC4)c3Cc3ccc(S(N)(=O)=O)c(F)c3)ccc2F)c1 [Compound 194, 2-(5-(cyclopropylmethyl)-3-(3′-(dimethylamino)-6-fluoro-[1,1′-biphenyl]-3-yl)-4-(3-fluoro-4-sulfamoylbenzyl)-1H-pyrazol-1-yl)thiazole-4-carboxylic acid] | > 7.00
